Values joined by “and” are separate entries in the source; they are usually repeats but may differ in a detail not shown here. Equal entries are not always repeated. Numbers after ± are expanded uncertainties.
Assay: not given
Conditions: 353.15 K; Liquid
In the case of `C1CCOC1` [tetrahydrofuran], the “vapor or sublimation pressure” value is reported as 155.92 ± 1 kPa and 157.86 ± 1 kPa.
With `CC(C)O` [propan-2-ol] the “vapor or sublimation pressure” value was 92.26 ± 0.62 kPa and 91.99 ± 0.61 kPa.
For `O` [water], the “vapor or sublimation pressure” value was 47.37 ± 0.58 kPa and 47.82 ± 0.58 kPa.
In the case of `CO` [methanol], the “vapor or sublimation pressure” value is reported as 182.61 ± 1.2 kPa.
With `CCO` [ethanol] the “vapor or sublimation pressure” value was 109.08 ± 0.72 kPa.
With `CC(C)=O` [acetone] the “vapor or sublimation pressure” value was 215.16 ± 1.4 kPa and 215.04 ± 1.4 kPa and 216.82 ± 5.5 kPa.

Assay: activity coefficient (dimensionless); of the first substance listed, at infinite dilution; xn = mol fraction of the nth substance listed
Conditions: 353.15 K; 101.33 kPa; Liquid; Static method; x1 = 0
Compound `CC(C)O` [propan-2-ol] + CCCC[n+]1ccn(C)c1.O=S(=O)([N-]S(=O)(=O)C(F)(F)F)C(F)(F)F has an activity coefficient of 1.1 ± 0.01.
Work on `CO` [methanol] + COP(=O)([O-])OC.Cn1cc[n+](C)c1 yielded an activity coefficient of 0.029 ± 0.01.
Work on `C1CCOC1` [tetrahydrofuran] + COP(=O)([O-])OC.Cn1cc[n+](C)c1 yielded an activity coefficient of 3.21 ± 0.05.
Work on `CC(C)O` [propan-2-ol] + CCn1cc[n+](C)c1.O=S(=O)([N-]S(=O)(=O)C(F)(F)F)C(F)(F)F yielded an activity coefficient of 1.42 ± 0.02.
Compound `O` [water] + COP(=O)([O-])OC.Cn1cc[n+](C)c1 has an activity coefficient of 0.028 ± 0.01.
For `CCO` [ethanol] + COP(=O)([O-])OC.Cn1cc[n+](C)c1, the activity coefficient was 0.115 ± 0.01.
For `C1CCOC1` [tetrahydrofuran] + CCn1cc[n+](C)c1.O=S(=O)([N-]S(=O)(=O)C(F)(F)F)C(F)(F)F, the activity coefficient was 0.8 ± 0.01.
With `O` [water] + CCn1cc[n+](C)c1.O=S(=O)([N-]S(=O)(=O)C(F)(F)F)C(F)(F)F the activity coefficient was 2.32 ± 0.04.
Work on `CC(C)=O` [acetone] + CCn1cc[n+](C)c1.O=S(=O)([N-]S(=O)(=O)C(F)(F)F)C(F)(F)F yielded an activity coefficient of 0.438 ± 0.01.
For `O` [water] + CCCC[n+]1ccn(C)c1.O=S(=O)([N-]S(=O)(=O)C(F)(F)F)C(F)(F)F, the activity coefficient was 2.27 ± 0.03.
In the case of `CC(C)=O` [acetone] + CCCC[n+]1ccn(C)c1.O=S(=O)([N-]S(=O)(=O)C(F)(F)F)C(F)(F)F, the activity coefficient is reported as 0.406 ± 0.01.
With `CC(C)=O` [acetone] + COP(=O)([O-])OC.Cn1cc[n+](C)c1 the activity coefficient was 0.98 ± 0.01.
